Patent US20130259884A1, “PEPTIDES” ([…] SL, priority 2010, published 2013)
Where a SMILES comes first, the peptide text is derived from it.

Assay: Water solubility of peptides when preparing stock solutions
Format: physicochemical
Conditions: stock solution in sterile distilled water or 100% DMSO; read-out: solubility of peptide (water soluble or water insoluble, dissolved in DMSO)
Protocol: For challenge, peptides were administered as follows: • Individual peptides (soluble). Individual water soluble peptides were dissolved as 10, 5 or 2.5 mg/ml stock solutions in sterile distilled water. Before use, each peptide was diluted in water to 2 mg/ml and 10 μl of this 2 mg/ml mix was added to 990 μl of media. Then 100 μl of this peptide/media mix was added to 100 μl of media containing 350,000 PBMC in an ELISPOT anti-IL-4 coated cell culture plate well for a final peptide concentration of 10 μg/ml. Identically diluted media only was added to the cells and used for the no peptide media control wells (media only). • Individual peptides (DMSO). Individual water insoluble peptides were dissolved in 100% DMSO to a stock concentration of 50 mg/ml. Before use each peptide was diluted in water to 2 mg/ml and then 10 μl of the 2 mg/ml mix was added to 990 μl of cell-culture media. Then 100 μl of this peptide/media mix was added to 100 μl of media containing 350,000 PBMC in an ELISPOT anti-IL-4 coated cell culture plate well for a final peptide concentration of 10 μg/ml. Identically diluted media only was added to the cells and used for the no peptide media control wells (media only). • A combination preparation containing Alt a 1 soluble peptides (33.2, 34.3, 35.4, 35.5, 37.3.1, 37.4.1, L6-5.01, L10-1.01, L10-2.01, L10-3), called Alt a 1 Sol. Each peptide was diluted from water stock to 2 mg/ml in sterile distilled water. Then 10 μl of each peptide required for the combined preparation was mixed and brought up to 1 ml in media. Then 100 μl of this peptide/media mix was added to 100 μl of media containing 350,000 PBMC in an ELISPOT anti-IL-4 coated cell culture plate well for a final concentration of each peptide of 10 μg/ml. Identically diluted media only was used for the no peptide control wells (media only). • A combination preparation containing Alt a 1 DMSO peptides (32.2.1, 38.2.1, 35.2, 35.3, L6-2, L6-3, L6-4, 38.3, 37.2), called Alt a 1 DMSO. Each peptide was diluted from DMSO stock to 2 mg/ml in sterile distilled water. Then 10 μl of each peptide required for the combined preparation was mixed and brought up to 1 ml in media. Then 100 μl of this peptide/media mix is added to 100 μl of media containing 350,000 PBMC in an ELISPOT anti-IL-4 coated cell culture plate well for a final concentration of each peptide of 10 μg/ml. Identically diluted media only was used for the no peptide control wells (media only). • A combination preparation containing non-Alt a 1 soluble peptides (40.2, 41.2, 43.2, 44.2, 46.2, 47.2.1, 56.2, 57.2.1, 60.2, 62.2.1, 67.2, 71.3), called Alt a Other Sol. Each peptide was diluted from water stock to 2 mg/ml in sterile distilled water. Then 10 μl of each peptide required for the combined preparation was mixed and brought up to 1 ml in media, Then 100 μl of this peptide/media mix was added to 100 μl of media containing 350,000 PBMC in an ELISPOT anti-IL-4 coated cell culture plate well for a final concentration of each peptide at 10 μg/ml. Identically diluted media only was used for the no peptide control wells (media only). • A combination preparation containing non-Alt a 1 DMSO peptides (39.2, 42.2, 45.2, 48.2.1, 50.2, 51.2.1, 61.2.1, 66.3.1, 68.2.1, 70.2, 71.2, 72.2), called Alt a Other DMSO. Each peptide was diluted from DMSO stock to 2 mg/ml in sterile distilled water. Then 10 ul of each peptide required for the combined preparation was mixed and brought up to 1 ml in media, Then 100 μl of this peptide/media mix was added to 100 μl of media containing 350,000 PBMC in an ELISPOT anti-IL-4 coated cell culture plate well for a final concentration of each peptide at 10 μg/ml. Identically diluted media only was used for the no peptide control wells (media only).

With `CC[C@H](C)[C@H](NC(=O)[C@H](CCC(N)=O)NC(=O)CNC(=O)[C@H](CO)NC(=O)[C@H](CCCNC(=N)N)NC(=O)[C@H](CC(C)C)NC(=O)CNC(=O)[C@@H](NC(=O)[C@@H](NC(=O)[C@@H](NC(=O)[C@H](CC(=O)O)NC(=O)[C@H](C)N)[C@@H](C)CC)C(C)C)C(C)C)C(=O)N[C@@H](CCCCN)C(=O)N[C@H](C(=O)NCC(=O)O)[C@@H](C)O` [Peptide 44.2, ADIVVGLRSGQIKTG] (H-ADIVVGLRSGQIKTG-OH) the solubility was greater than 2500 µg/mL.
Work on `CC[C@H](C)[C@H](NC(=O)[C@H](C)N)C(=O)N[C@@H](CCC(=O)O)C(=O)N[C@@H](CC(C)C)C(=O)N[C@@H](CCCCN)C(=O)N[C@@H](CO)C(=O)N[C@H](C(=O)N[C@@H](CC(N)=O)C(=O)N[C@@H](C)C(=O)N[C@@H](CC(C)C)C(=O)N[C@@H](CC(C)C)C(=O)N[C@@H](CC(C)C)C(=O)N[C@@H](CCCCN)C(=O)N[C@H](C(=O)N[C@@H](CC(N)=O)C(=O)O)C(C)C)C(C)C` [Peptide 61.2.1, AIELKSVNALLLKVN] (H-AIELKSVNALLLKVN-OH) yielded a solubility of less than 2500 µg/mL.
In the case of `CC[C@H](C)[C@H](NC(=O)[C@H](CCC(=O)O)NC(=O)[C@H](CC(=O)O)NC(=O)[C@@H]1CCCN1)C(=O)N[C@@H](CCC(N)=O)C(=O)NCC(=O)N[C@@H](Cc1ccccc1)C(=O)N1CCC[C@H]1C(=O)N[C@H](C(=O)N[C@H](C(=O)N[C@@H](CCCCN)C(=O)N[C@@H](CC(C)C)C(=O)N[C@@H](Cc1ccccc1)C(=O)N1CCC[C@H]1C(=O)N[C@@H](C)C(=O)O)[C@@H](C)CC)[C@@H](C)O` [Peptide 43.2, PDEIQGFPTIKLFPA] (H-PDEIQGFPTIKLFPA-OH), the solubility is reported as greater than 2500 µg/mL.
With `CC[C@H](C)[C@H](NC(=O)[C@H](Cc1ccc(O)cc1)NC(=O)[C@H](C)NC(=O)[C@H](CC(=O)O)NC(=O)[C@H](C)NC(=O)[C@@H](N)C(C)C)C(=O)N[C@H](C(=O)N[C@@H](CC(C)C)C(=O)N[C@H](C(=O)N[C@H](C(=O)N[C@@H](CC(C)C)C(=O)N1CCC[C@H]1C(=O)N[C@@H](CCCCN)C(=O)N[C@@H](CO)C(=O)N[C@@H](CO)C(=O)O)[C@@H](C)O)C(C)C)[C@@H](C)O` [Peptide 38.3, VADAYITLVTLPKSS] the solubility was less than 2500 µg/mL.
`CC(C)C[C@H](NC(=O)[C@H](C)NC(=O)[C@H](CCCNC(=N)N)NC(=O)[C@H](C)N)C(=O)N[C@@H](CCCNC(=N)N)C(=O)N[C@@H](CCCNC(=N)N)C(=O)N[C@@H](CC(C)C)C(=O)N[C@@H](CCCNC(=N)N)C(=O)N[C@H](C(=O)N[C@@H](C)C(=O)N[C@@H](CS)C(=O)N[C@@H](CCC(=O)O)C(=O)N[C@@H](CCCNC(=N)N)C(=O)N[C@@H](C)C(=O)N[C@@H](CCCCN)C(=O)O)[C@@H](C)O` [Peptide 41.2, ARALRRLRTACERAK] (H-ARALRRLRTACERAK-OH; N-terminus and C-terminus assumed) showed a solubility greater than 2500 µg/mL.
With `CC[C@H](C)[C@H](NC(=O)[C@H](CC(N)=O)NC(=O)[C@H](Cc1ccccc1)NC(=O)CNC(=O)[C@H](CC(C)C)NC(=O)[C@H](CO)NC(=O)[C@H](CC(N)=O)NC(=O)[C@@H](N)Cc1ccc(O)cc1)C(=O)N[C@@H](CCCCN)C(=O)N[C@@H](C)C(=O)N[C@H](C(=O)N[C@@H](CC(N)=O)C(=O)NCC(=O)NCC(=O)N[C@H](C(=O)O)[C@@H](C)O)[C@@H](C)O` [Peptide 35.3, YNSLGFNIKATNGGT] (H-YNSLGFNIKATNGGT-OH) the solubility was less than 2500 µg/mL.
`CC[C@H](C)[C@H](NC(=O)[C@H](CO)NC(=O)[C@@H](NC(=O)[C@@H](NC(=O)[C@H](CCCCN)NC(=O)[C@@H](NC(=O)[C@H](CCC(N)=O)NC(=O)[C@@H](NC(=O)[C@H](Cc1ccc(O)cc1)NC(=O)[C@H](CC(N)=O)NC(=O)[C@H](CC(=O)O)NC(=O)[C@@H](N)CC(C)C)[C@@H](C)CC)[C@@H](C)O)[C@@H](C)O)C(C)C)C(=O)N[C@@H](CCCNC(=N)N)C(=O)N[C@@H](CC(C)C)C(=O)NCC(=O)O` [Peptide 71.2, LDNYIQTKTVSIRLG] (H-LDNYIQTKTVSIRLG-OH) showed a solubility of less than 2500 µg/mL.
